Laboratory results from the NIST ThermoML archive (doi:10.1016/j.fluid.2008.06.004).
“And” between values parts separate entries of the source, which are not always exact repeats. Identical values can stand only once. Numbers after ± are expanded uncertainties.

Columns and labels:
[1] = Liquid; for mass density: 298.15 K, 101.33 kPa
[2] = refractive index (Na D-line) (dimensionless); settings: 298.15 K; 101.33 kPa; Liquid; Standard Abbe refractometry

CCC(C)=O [butanone]
Settings | mass density [kg/m3] | refractive index
[1] | 799.62 ± 0.35 | –
[2] | – | 1.37614 ± 0.00068

[1], Ebulliometric method (Recirculating still)
Settings | vapor or sublimation pressure
308.22 K | 18.73 ± 0.43 kPa
309.55 K | 20 ± 0.4 kPa
310.48 K | 20.76 ± 0.42 kPa
312.56 K | 22.74 ± 0.44 kPa
313.8 K | 24.01 ± 0.46 kPa
316.39 K | 26.73 ± 0.47 kPa
318.16 K | 28.71 ± 0.53 kPa
319.63 K | 30.72 ± 0.56 kPa
321.2 K | 32.71 ± 0.58 kPa
324.08 K | 36.72 ± 0.6 kPa
326.86 K | 40.72 ± 0.64 kPa
329.31 K | 44.73 ± 0.72 kPa
331.49 K | 48.73 ± 0.77 kPa
333.61 K | 52.73 ± 0.8 kPa
335.64 K | 56.74 ± 0.84 kPa
337.53 K | 60.73 ± 0.88 kPa
339.37 K | 64.72 ± 0.93 kPa
341.07 K | 68.73 ± 0.98 kPa
342.7 K | 72.72 ± 1 kPa
344.29 K | 76.74 ± 1.1 kPa
345.74 K | 80.72 ± 1.1 kPa
347.19 K | 84.73 ± 1.1 kPa
348.59 K | 88.73 ± 1.2 kPa
349.95 K | 92.74 ± 1.2 kPa
350.49 K | 94.41 ± 1.3 kPa
351.4 K | 97.29 ± 1.3 kPa
352.68 K | 101.32 ± 1.3 kPa and 101.3 ± 1.3 kPa
354.04 K | 105.95 ± 1.4 kPa
355.29 K | 110.24 ± 1.4 kPa
356.39 K | 114.07 ± 1.4 kPa
357.91 K | 119.51 ± 1.5 kPa
359.12 K | 124.08 ± 1.5 kPa
360.32 K | 128.72 ± 1.6 kPa
361.22 K | 132.46 ± 1.6 kPa
362.08 K | 135.91 ± 1.6 kPa

CCO [ethanol]
Settings | mass density [kg/m3] | refractive index
[1] | 786.47 ± 0.5 | –
[2] | – | 1.35939 ± 0.00068

[1], Ebulliometric method (Recirculating still)
Settings | vapor or sublimation pressure [kPa]
315.41 K | 20 ± 0.9
351.46 K | 101.3 ± 0.9

CCCO [propan-1-ol]
Settings | mass density [kg/m3] | refractive index
[1] | 799.44 ± 0.23 | –
[2] | – | 1.38305 ± 0.00068

[1]
Settings | vapor or sublimation pressure [kPa]
332.67 K | 20 ± 0.9
370.21 K | 101.3 ± 0.9

CC(C)O [propan-2-ol]
Settings | mass density [kg/m3] | refractive index
[1] | 780.75 ± 0.24 | –
[2] | – | 1.37497 ± 0.00068

[1], Ebulliometric method (Recirculating still)
Settings | vapor or sublimation pressure [kPa]
319.8 K | 20 ± 0.9
355.4 K | 101.3 ± 0.9
